Biological target: Histone deacetylase 2 (Homo sapiens, UniProt Q92769)
Assay: Inhibition of full-length recombinant human C-terminal GST tagged HDAC2 expressed in Sf9 insect cells using aminoluciferin peptide substrate at 100 nM preincubated for 3 hrs followed by substrate addition and measured after 30 mins by HDAC-Glo I/II chemiluminescence assay
Conditions: time 3.5 hrs

Sequence of Histone deacetylase 2 (Q92769 whole entry): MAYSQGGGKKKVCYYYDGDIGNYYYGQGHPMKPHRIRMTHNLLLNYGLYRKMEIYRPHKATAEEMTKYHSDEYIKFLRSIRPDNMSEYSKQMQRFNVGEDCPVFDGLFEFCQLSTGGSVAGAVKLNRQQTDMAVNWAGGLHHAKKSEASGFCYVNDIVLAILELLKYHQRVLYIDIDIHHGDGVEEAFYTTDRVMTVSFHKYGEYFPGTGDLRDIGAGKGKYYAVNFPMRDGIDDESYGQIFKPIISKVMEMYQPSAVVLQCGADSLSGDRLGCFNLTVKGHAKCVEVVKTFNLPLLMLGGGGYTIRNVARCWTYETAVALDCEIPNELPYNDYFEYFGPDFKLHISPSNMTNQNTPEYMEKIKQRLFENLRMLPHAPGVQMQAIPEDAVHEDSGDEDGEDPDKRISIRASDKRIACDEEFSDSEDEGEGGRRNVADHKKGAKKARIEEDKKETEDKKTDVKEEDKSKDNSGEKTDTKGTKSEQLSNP

Row | Compound | inhibition [%]
1 | COc1ccc(Cn2cc(C(=O)Nc3cc(-c4ccccc4)ccc3N)nn2)cc1 | 6
2 | Nc1ccc(-c2ccccc2)cc1NC(=O)c1cn(CCc2c[nH]c3ccccc23)nn1 | 0
3 | Nc1ccc(-c2ccc(F)cc2)cc1NC(=O)c1cn(-c2ccc(I)cc2)nn1 | 7
4 | Cc1csc(CCn2cc(-c3ccc(C(=O)Nc4cc(-c5cccs5)ccc4N)cc3)nn2)n1 | 68
5 | Nc1ccc(-c2ccc(F)cc2)cc1NC(=O)CCc1cn(CS(=O)(=O)c2ccccc2)nn1 | 13
6 | Nc1ccc(-c2cccnc2)cc1NC(=O)CCc1cn(Cc2ccc3ccccc3c2)nn1 | 19
7 | Nc1ccc(-c2ccccc2)cc1NC(=O)CCc1cn(/C=C/c2ccccc2)nn1 | 15
8 | COc1ccc(-n2cc(CCC(=O)Nc3cc(-c4cccs4)ccc3N)nn2)cc1 | 14
9 | Nc1ccc(-c2ccsc2)cc1NC(=O)CCc1cn(CCc2cccc(Cl)c2)nn1 | 15
10 | Nc1ccc(-c2ccccc2)cc1NC(=O)CCc1cn(CC23CC4CC(CC(C4)C2)C3)nn1 | 0
11 | Nc1ccc(-c2ccsc2)cc1NC(=O)CCc1cn(Cc2ccc(C(=O)O)cc2)nn1 | 31
12 | Nc1ccc(-c2cccs2)cc1NC(=O)c1ccc(-c2cn(CCC3CCCCC3)nn2)s1 | 0
13 | Nc1ccc(-c2cccs2)cc1NC(=O)c1cn(CCCCCc2ccccc2)nn1 | 1
14 | Nc1ccc(-c2ccc(F)cc2)cc1NC(=O)CCc1cn(CCc2ccc([N+](=O)[O-])cc2)nn1 | 20
15 | COc1ccc(CCn2cc(C(=O)Nc3cc(-c4cccs4)ccc3N)nn2)cc1 | 21
16 | Nc1ccc(-c2ccccc2)cc1NC(=O)CCc1cn(CCCCCC(=O)O)nn1 | 0
17 | COc1ccccc1CCn1cc(C(=O)Nc2cc(-c3cccs3)ccc2N)nn1 | 6
18 | Nc1ccc(-c2ccsc2)cc1NC(=O)c1cn(C[S+]([O-])c2ccccc2)nn1 (centres undefined) | 10
19 | Cc1cccc(C)c1NC(=O)Cn1cc(C(=O)Nc2cc(-c3cccs3)ccc2N)nn1 | 21
20 | Nc1ccc(-c2ccccc2)cc1NC(=O)c1cn(CCCCCCC(=O)O)nn1 | 0
21 | Nc1ccc(-c2cccs2)cc1NC(=O)c1cccc(-c2cn(Cc3ccc4ccccc4c3)nn2)c1 | 6

Row | Compound | inhibition [%]
22 | Nc1ccc(-c2ccsc2)cc1NC(=O)CCc1cn(CCc2cccc(F)c2)nn1 | 21
23 | Nc1ccc(-c2cccs2)cc1NC(=O)c1cn(CC(=O)Nc2ccc(F)cc2)nn1 | 0
24 | Nc1ccc(-c2cccnc2)cc1NC(=O)CCc1cn(Cc2ccc(-c3ccccc3)cc2)nn1 | 8
25 | Nc1ccc(-c2cccs2)cc1NC(=O)c1ccc(-c2cn(CCN3CCc4ccccc4C3)nn2)cc1 | 0
26 | Nc1ccc(-c2ccccc2)cc1NC(=O)c1cn(CCc2ccccc2C(F)(F)F)nn1 | 0
27 | Cc1cccc(C)c1NC(=O)Cn1cc(C(=O)Nc2cc(-c3ccccc3)ccc2N)nn1 | 9
28 | Nc1ccc(-c2ccccc2)cc1NC(=O)c1cn(CCc2cccc([N+](=O)[O-])c2)nn1 | 0
29 | Cc1ccc(-n2cc(-c3ccc(C(=O)Nc4cc(-c5cccs5)ccc4N)s3)nn2)cc1C | 0
30 | Nc1ccc(-c2cccnc2)cc1NC(=O)CCc1cn(CCc2ccccc2[N+](=O)[O-])nn1 | 1
31 | Nc1ccc(-c2ccc(F)cc2)cc1NC(=O)CCc1cn(CCCCCCC(=O)O)nn1 | 6
32 | COc1ccc(-n2cc(-c3ccc(C(=O)Nc4cc(-c5cccs5)ccc4N)s3)nn2)cc1 | 5
33 | Nc1ccc(-c2ccc(F)cc2)cc1NC(=O)c1cn(-c2ccc(Br)cc2)nn1 | 10
34 | Nc1ccc(-c2cccs2)cc1NC(=O)c1cccc(-c2cn(CCc3cccc(C(F)(F)F)c3)nn2)c1 | 0
35 | Nc1ccc(-c2cccs2)cc1NC(=O)c1cccc(-c2cn(CCc3ccccc3C(F)(F)F)nn2)c1 | 2
36 | Nc1ccc(-c2cccs2)cc1NC(=O)c1cccc(-c2cn(CCC3CCCC3)nn2)c1 | 0
37 | Nc1ccc(-c2cccs2)cc1NC(=O)c1ccc(-c2cn(CCCCCCCC(=O)O)nn2)s1 | 14
38 | Nc1ccc(-c2cccs2)cc1NC(=O)c1ccc(-c2cn(-c3ccc(O)cc3)nn2)cc1 | 16
39 | COc1ccc(-n2cc(CCC(=O)Nc3cc(-c4ccc(F)cc4)ccc3N)nn2)cc1 | 10
40 | Nc1ccc(-c2cccs2)cc1NC(=O)c1cccc(-c2cn(Cc3ccc(-c4ccccc4)cc3)nn2)c1 | 0
41 | Nc1ccc(-c2cccs2)cc1NC(=O)c1cccc(-c2cn(Cc3ccc(C(=O)O)cc3)nn2)c1 | 55
42 | Nc1ccc(-c2cccs2)cc1NC(=O)c1cccc(-c2cn(Cc3ccc(OC(F)(F)F)cc3)nn2)c1 | 0

Row | Compound | inhibition [%]
43 | COc1ccc(-n2cc(C(=O)Nc3cc(-c4cccs4)ccc3N)nn2)cc1 | 6
44 | Nc1ccc(-c2cccs2)cc1NC(=O)c1ccc(-c2cn(-c3ccc(I)cc3)nn2)cc1 | 0
45 | COc1ccccc1CCn1cc(C(=O)Nc2cc(-c3ccsc3)ccc2N)nn1 | 0
46 | COc1ccc(CCn2cc(CCC(=O)Nc3cc(-c4ccsc4)ccc3N)nn2)cc1 | 29
47 | Nc1ccc(-c2cccs2)cc1NC(=O)c1ccc(-c2cn(-c3ccc(I)cc3)nn2)s1 | 0
48 | Nc1ccc(-c2ccc(F)cc2)cc1NC(=O)c1cn(Cc2ccc(Oc3ccccc3)cc2)nn1 | 5
49 | Nc1ccc(-c2ccccc2)cc1NC(=O)CCc1cn(CC(=O)c2ccccc2)nn1 | 18
50 | Nc1ccc(-c2ccc(F)cc2)cc1NC(=O)CCc1cn(Cc2ccc3ccccc3c2)nn1 | 15
51 | Nc1ccc(-c2cccs2)cc1NC(=O)c1ccc(-c2cn(CCc3cccc4ccccc34)nn2)cc1 | 0
52 | Nc1ccc(-c2cccnc2)cc1NC(=O)CCc1cn(-c2ccc(Br)cc2)nn1 | 2
53 | Nc1ccc(-c2ccsc2)cc1NC(=O)CCc1cn(CC23CC4CC(CC(C4)C2)C3)nn1 | 0
54 | Nc1ccc(-c2ccc(F)cc2)cc1NC(=O)c1cn(CCc2ccccc2C(F)(F)F)nn1 | 0
55 | Nc1ccc(-c2cccs2)cc1NC(=O)CCc1cn(CCN2CCc3ccccc3C2)nn1 | 14
56 | Nc1ccc(-c2ccsc2)cc1NC(=O)c1cn(-c2ccc(Br)cc2)nn1 | 0
57 | Nc1ccc(-c2ccc(F)cc2)cc1NC(=O)CCc1cn(CCN2CCOCC2)nn1 | 0
58 | Nc1ccc(-c2cccs2)cc1NC(=O)CCc1cn(CS(=O)(=O)c2ccccc2)nn1 | 15
59 | Nc1ccc(-c2ccsc2)cc1NC(=O)CCc1cn(CS(=O)(=O)c2ccccc2)nn1 | 14
60 | Nc1ccc(-c2ccc(F)cc2)cc1NC(=O)CCc1cn(CC23CC4CC(CC(C4)C2)C3)nn1 | 0
61 | Nc1ccc(-c2ccccc2)cc1NC(=O)CCc1cn(CCc2cccc([N+](=O)[O-])c2)nn1 | 30
62 | Nc1ccc(-c2ccsc2)cc1NC(=O)c1cn(-c2ccc([N+](=O)[O-])cc2)nn1 | 0

Results, then the compound that gave them:

Row | inhibition [%] | Compound
63 | 2 | Nc1ccc(-c2ccccc2)cc1NC(=O)c1cn(Cc2cccc3ccccc23)nn1
64 | 0 | Nc1ccc(-c2ccc(F)cc2)cc1NC(=O)CCc1cn(CCc2ccccc2C(F)(F)F)nn1
65 | 2 | Nc1ccc(-c2ccsc2)cc1NC(=O)CCc1cn(CCc2ccc(Cl)cc2)nn1
66 | 0 | Nc1ccc(-c2cccs2)cc1NC(=O)c1cn(CCc2cccc3ccccc23)nn1
67 | 0 | Nc1ccc(-c2ccccc2)cc1NC(=O)CCc1cn(-c2cccc3ccccc23)nn1
68 | 14 | Cc1ccccc1CCn1cc(-c2ccc(C(=O)Nc3cc(-c4cccs4)ccc3N)s2)nn1
69 | 27 | Nc1ccc(-c2ccccc2)cc1NC(=O)CCc1cn(Cc2nc3ccccc3[nH]2)nn1
70 | 25 | Nc1ccc(-c2ccsc2)cc1NC(=O)c1cn(Cc2nc3ccccc3[nH]2)nn1
71 | 0 | Nc1ccc(-c2cccs2)cc1NC(=O)c1cn(-c2ccc(O)cc2)nn1
72 | 1 | Nc1ccc(-c2ccccc2)cc1NC(=O)CCc1cn(CCc2cccc(F)c2)nn1
73 | 30 | Nc1ccc(-c2cccs2)cc1NC(=O)CCc1cn(Cc2ccc3ccccc3c2)nn1
74 | 0 | Nc1ccc(-c2cccs2)cc1NC(=O)c1cccc(-c2cn(CCc3ccccc3[N+](=O)[O-])nn2)c1
75 | 0 | Nc1ccc(-c2cccs2)cc1NC(=O)c1ccc(-c2cn(-c3ccccc3-c3ccccc3)nn2)s1
76 | 9 | Nc1ccc(-c2cccs2)cc1NC(=O)CCc1cn(CCc2cccc(Cl)c2)nn1
77 | 0 | Nc1ccc(-c2ccccc2)cc1NC(=O)c1cn(-c2ccc(I)cc2)nn1
78 | 0 | Nc1ccc(-c2cccnc2)cc1NC(=O)CCc1cn(CCCCC(=O)O)nn1

Row | inhibition [%] | Compound
79 | 0 | Nc1ccc(-c2ccc(F)cc2)cc1NC(=O)c1cn(Cc2ccc(OC(F)(F)F)cc2)nn1
80 | 1 | CCc1ccc(Cn2cc(CCC(=O)Nc3cc(-c4ccccc4)ccc3N)nn2)cc1
81 | 12 | Nc1ccc(-c2cccs2)cc1NC(=O)c1cn(/C=C/c2ccccc2)nn1
82 | 0 | Nc1ccc(-c2ccccc2)cc1NC(=O)c1cn(Cc2ccc(Oc3ccccc3)cc2)nn1
83 | 37 | Cc1csc(CCn2cc(CCC(=O)Nc3cc(-c4ccc(F)cc4)ccc3N)nn2)n1
84 | 0 | Nc1ccc(-c2cccs2)cc1NC(=O)c1cccc(-c2cn(CCc3ccsc3)nn2)c1
85 | 11 | Nc1ccc(-c2cccnc2)cc1NC(=O)CCc1cn(Cc2nc3ccccc3[nH]2)nn1
86 | 0 | Nc1ccc(-c2cccs2)cc1NC(=O)c1cccc(-c2cn(CCCCCc3ccccc3)nn2)c1
87 | 12 | Nc1ccc(-c2cccs2)cc1NC(=O)c1cn(Cc2ccc3ccccc3n2)nn1
88 | 0 | Nc1ccc(-c2ccccc2)cc1NC(=O)c1cn(Cc2cccc(C(=O)O)c2)nn1
89 | 0 | Nc1ccc(-c2ccccc2)cc1NC(=O)c1cn(C[S+]([O-])c2ccccc2)nn1 (centres undefined)
90 | 26 | Nc1ccc(-c2cccs2)cc1NC(=O)CCc1cn(CCc2ccccc2)nn1
91 | 0 | Nc1ccc(-c2ccccc2)cc1NC(=O)c1cn(CC2CCCCC2)nn1
92 | 1 | Nc1ccc(-c2cccs2)cc1NC(=O)c1ccc(-c2cn(CCCCCc3ccccc3)nn2)s1
93 | 0 | Nc1ccc(-c2ccccc2)cc1NC(=O)CCc1cn(CCN2CCOCC2)nn1
94 | 0 | Nc1ccc(-c2cccnc2)cc1NC(=O)CCc1cn(CCc2ccc(C(F)(F)F)cc2)nn1

From ChEMBL document CHEMBL5390237, “Discovery of Selective Histone Deacetylase 1 and 2 Inhibitors: Screening of a Focused Library Constructed by Click Chemistry, Kinetic Binding Analysis, and Biological Evaluation” (J Med Chem, 2023)
